Experimental data as given in patent US10765638B2, “Particle formulation with polycation complex” (Yale University, priority 2017, dated 2020).

Legend:
H1975 and H1975-OR cells = experiment: MTT proliferation assay; assay type: cell-based; settings: both parental and H1975-OR cell lines; 10 μM NGI-1, 5 days
Method: (§1) The H1975 and A549 cell lines were purchased from ATCC (Manassas, Va.), the PC9 cell line was a gift from Katie Politi, and the HCC-827 and HCC-827-GR lines were gifts from Jeff Engelman (MGH, Boston Mass.). Cell lines were cultured in RPMI 1640+10% FBS supplemented with penicillin and streptomycin (Gibco, Life Technologies, Grand Island, N.Y., US) in a humidified incubator with 5% CO2, and they were kept in culture no more than 4 months after resuscitation from the original stocks. No additional authentication was performed. Mycoplasma cell culture contamination was routinely checked and ruled out using the MycoAlert Mycoplasma Detection Kit (Lonza, Rockland, Me. USA). To generate a TKI resistant cell lines, either PC9 or H1975 cells were exposed to increasing concentrations of gefitinib or osimertinib, respectively. Gefitinib or Osimertinib concentrations were increased stepwise when cells resumed growth kinetics similar to the untreated parental cells over a dose range from 10 to 500 nM. Resistant cell cultures were obtained ˜8-12 weeks after initiation of drug exposure. To confirm the emergence of a therapeutic resistant, MTT assays were performed after allowing the cells to grow in drug-free conditions for at least 4 days.
(§2) Growth rates were determined by CellTiter 96 NonRadioactive Cell Proliferation Assay (Promega; Madison, Wis., USA) according to the manufacturer's directions. Briefly, NSCLC cells (2×103) untreated or treated with 10 μM NGI-1, 100 nM Gefitinib, or 1 μM Osimertinib (Selleck Chemicals), were seeded in triplicate in 96-wells plates and grown in culture medium containing 10% serum. The media was changed with or without new inhibitor every 48 h. Cell numbers were estimated after 0, 3, and 5 days by adding MTT (3-(4,5-dimethylthiazol-2-yl)-2,5-diphenyltetrazolium bromide) reagent to the wells 4 h before taking the spectrophotometric reading (absorbance at 570 nm).

PC9 and PC9-GR cells = experiment: MTT proliferation assay; assay type: cell-based; settings: both parental and T790M expressing PC9 cell lines; 10 μM NGI-1, 5 days
Method: as §1, §2

[1] = system: HCC827 and HCC827-GR cells; experiment: MTT proliferation assay; assay type: cell-based; settings: both parental and HCC827-GR cells; 10 μM NGI-1, 5 days
Method: as §1, §2

SKMG3 cells = experiment: Phospho-γH2AX foci formation after radiation; assay type: cell-based, human; settings: 2 hours after 4 Gy, 10 μM NGI-1
Method: To determine histone H2AX phosphorylation (γH2AX), cells were cultured on glass cover slips and pre-treated with either vehicle or NGI-1 for 48 hours followed by radiation treatment. Samples were fixed with 4% neutral-buffered formaldehyde, washed (0.1% triton in PBS for 30 minutes) and incubated for 1 hour with protein-blocking solution (PBS containing 10% normal goat-horse serum; Sigma-Aldrich, Saint Louis, Mich., US). Next, the slides were incubated with primary anti-phospho-histone γH2AX S139 (1:500, Millipore-Upstate, Billerica, Mass., US) followed by incubation with secondary antibody Alexa Fluor 555-conjugated goat anti-mouse IgG (1:750, Molecular probes/Invitrogen, Carlsbad, Calif., US), for 1 hour at room temperature. Nuclei were stained using DAPI containing vectashield mounting solution (Vector Labs). Confocal cellular images were captured with an inverted Zeiss LSM 510 Pascal laser confocal microscope (C. Zeiss, Jenna, Germany), using a 63/1.4 plan-apochromat objective. Five randomly selected fields s per slide were analyzed. Cells were counted using the ImageJ program, public domain Java image processing software.

SKMG3-CD8-EGFR cells = experiment: Radiation clonogenic survival assay; assay type: cell-based, human; settings: 10 μM NGI-1
Method: Radiation (XRT) doses of either 0, 2, 4, or 6 Gy were delivered with a Precision X-ray 320-kV orthovoltage unit at a dose rate of 2 Gy/45 seconds (PXI X-Ray Systems). Twenty-four hours following XRT cells were washed, trypsinized, and re-plated in triplicate wells to determine clonogenic survival. […] Growth rates were determined by CellTiter 96 Non-Radioactive Cell Proliferation Assay (Promega; Madison, Wis., USA) according to the manufacturer's directions. For each experiment one thousand cells were seeded in triplicate wells in 96-wells plates. The following day, cell cultures were treated with NGI-1 (1 μM), Temozolomide (TMZ, 10 μM), Etoposide (VP-16, 0.1 μM) or combinations for 5 days. Absorbance at 540 nm was measured using the spectrophotometric reading (BioTek Synergy 2; Winooski, Vt. USA).
The CD8 cDNA was a gift from Paula Kavathas (Yale University). The CD8-EGFR was constructed according to a strategy that generated a constitutively active IGF-1R (24). The extracellular domain of CD8 was PCR amplified with a 5′ XbaI and 3′ SalI restriction site and cloned in-frame with the intracellular kinase domain of EGFR using the pDCB5-EGFR plasmid. SKMG3-CD8-EGFR cells were generated by Lipofectamine (Life Technologies) transfection of the plasmid followed by selection with 500 μg/ml G418. Expression of CD8-EGFR was validated by western blot analysis of the wild type and CD8-EGFR.

T98G cells = experiment: Cell cycle distribution by flow cytometry; assay type: cell-based
Method: (§3) Cell cycle distribution was determined following treatment with vehicle, radiation and/or 10 uM NGI-1. Cells were trypsinized and centrifuged, washed once with ice-cold PBS, fixed with ice-cold 70% ethanol and stored overnight at −20° C. After washing twice with PBS, they were incubated for 30 minutes at room temperature in 200 μL of Guava Cell Cycle Reagent (Guava Technologies). Cytofluorometric acquisitions were performed on a LSRII cytometer (BD Biosciences). First-line analysis was performed with FlowJo software, upon gating of the events characterized by normal forward and side scatter parameters and discrimination of doublets in a FSC-A vs. FSC-H bivariate plot. Approximately 50,000 cells were analyzed per experiment.

D54 cells = experiment: Cell cycle distribution by flow cytometry; assay type: cell-based
Method: as §3

U251 cells = experiment: Cell cycle distribution by flow cytometry; assay type: cell-based
Method: as §3

## Cc1cnc(NC(=O)c2cc(S(=O)(=O)N(C)C)ccc2N2CCCC2)s1 [NGI-1, 5-(dimethylsulfamoyl)-N-(5-methyl-1,3-thiazol-2-yl)-2-(pyrrolidin-1-yl)benzamide]
H1975 and H1975-OR cells
  reduction of proliferation: more than 70%
PC9 and PC9-GR cells
  reduction of proliferation: ~90%
[1]
  reduction of proliferation: 80%
SKMG3 cells
  increase of phospho-γH2AX foci formation compared to radiation alone (factor): 1.2
SKMG3-CD8-EGFR cells
  radiosensitization by NGI-1 (radiation clonogenic survival): prevented radiosensitization
T98G cells; 48 hours of NGI-1
  G1 arrest: no arrest
T98G cells; NGI-1 + 4 Gy
  G1 arrest six hours after 4 Gy: not for either the T98G or U251 cells
D54 cells; 48 hours of 10 uM NGI-1, control 75%
  cells in G1 (G1 arrest): 83%
D54 cells; NGI-1 + 4 Gy, 66% without NGI-1
  cells in G1 six hours after 4 Gy: 77%
U251 cells; 48 hours of 10 uM NGI-1, printed 64% vs. 72%
  cells in G1 (G1 arrest): 64%
U251 cells; NGI-1 + 4 Gy
  G1 arrest six hours after 4 Gy: not for either the T98G or U251 cells
